Source: patent publication US20230053688A1, “METHODS TO ALTER LATENCY IN EBV+ MALIGNANCIES” (Cornell University, priority 2020, published 2023)
Structures can show the parent of a compound that is named as a salt. Where two headings read alike, the source gives them in different places.

System: LMP1 expression in Kem I cells
Experiment: microbe, parasite or virus in culture
Assay type: cell-based, EBV
Conditions: for fold induction at 2.5 µM / fold induction at 1 µM: human gammaherpesvirus 4, 48 h; for Average LMP1 Fold Increase / Replicate 1-LMP1 Fold Increase / Replicate 2-LMP1 Fold Increase: Kem I cells, 48 hours
[1] = read-out: Average LMP1 Fold Increase, Kem I cells, 2.5 uM, 48 hours, average of replicates 1 and 2
[2] = read-out: Replicate 1-LMP1 Fold Increase, Kem I cells, 2.5 uM, 48 hours, fold change in LMP1 transcript vs vehicle
[3] = read-out: Replicate 2-LMP1 Fold Increase, Kem I cells, 2.5 uM, 48 hours, fold change in LMP1 transcript vs vehicle
[4] = 2.5 uM, average of replicates 1 and 2
[5] = 2.5 uM, fold change in LMP1 transcript vs vehicle
[6] = dose 2.5 uM, LMP1 transcript by in-well qRT-PCR, average of the two replicates
[7] = dose 2.5 uM, LMP1 transcript by in-well qRT-PCR, screen replicate 1
[8] = dose 2.5 uM, LMP1 transcript by in-well qRT-PCR, screen replicate 2

Structure (SMILES): COc1ccc2c(c1)C(=O)N(CCc1ccc(S(=O)(=O)NC(=O)NC3CCCCC3)cc1)C(=O)C2(C)C [Gliquidone]
- fold induction at 2.5 µM [1]: 0.77
- fold induction at 2.5 µM [2]: 0.81
- fold induction at 2.5 µM [3]: 0.73

Structure (SMILES): CCN(CC)CCCC(C)Nc1nc(C)cc(Nc2ccc3nc(C)cc(N)c3c2)n1 (stereo not drawn) [NSC 23766]
- Average LMP1 Fold Increase [4]: 0.82
- Replicate 1-LMP1 Fold Increase [5]: 0.62
- Replicate 2-LMP1 Fold Increase [5]: 1.01

Structure (SMILES): COc1cccc2c1C(=O)c1c(O)c3c(c(O)c1C2=O)C[C@@](O)(C(=O)CO)C[C@@H]3O[C@H]1C[C@H](N)[C@H](O)[C@H](C)O1 [Doxorubicin]
- fold induction at 1 µM (read-out: Average LMP1 Fold Increase, Kem I cells, 1 uM, 48 hours, average of replicates 1 and 2): 47
- fold induction at 1 µM (read-out: Replicate 1-LMP1 Fold Increase, Kem I cells, 1 uM, 48 hours, fold change in LMP1 transcript vs vehicle): 39.2
- fold induction at 1 µM (read-out: Replicate 2-LMP1 Fold Increase, Kem I cells, 1 uM, 48 hours, fold change in LMP1 transcript vs vehicle): 54.8

Structure (SMILES): COc1cc2/c(=N/c3ccc(Br)cc3F)nc[nH]c2cc1OCC1CCN(C)CC1 [Vandetanib (ZD6474)]
- Average LMP1 Fold Increase [6]: 1.14 fold
- Replicate 1-LMP1 Fold Increase [7]: 0.81 fold
- Replicate 2-LMP1 Fold Increase [8]: 1.47 fold

Structure (SMILES): C=CCc1cccc(/C=N/NC(=O)CN2CCN(Cc3ccccc3)CC2)c1O [PAC-1]
- Average LMP1 Fold Increase [4]: 0.78
- Replicate 1-LMP1 Fold Increase [5]: 0.78
- Replicate 2-LMP1 Fold Increase [5]: 0.78

Structure (SMILES): C=CC(=O)Nc1cccc(Oc2nc(Nc3ccc(N4CCN(C)CC4)cc3OC)ncc2Cl)c1 [WZ4002]
- Average LMP1 Fold Increase [6]: 0.90 fold
- Replicate 1-LMP1 Fold Increase [7]: 0.58 fold
- Replicate 2-LMP1 Fold Increase [8]: 1.23 fold

Structure (SMILES): O=C(/C=C/c1cccc(S(=O)(=O)Nc2ccccc2)c1)NO [Belinostat (PXD101)]
- Average LMP1 Fold Increase [4]: 51.63
- Replicate 1-LMP1 Fold Increase [5]: 17.40
- Replicate 2-LMP1 Fold Increase [5]: 85.87

Structure (SMILES): Nc1nc(CC(=O)Nc2ccc(CCNC[C@H](O)c3ccccc3)cc2)cs1 [Mirabegron]
- fold induction at 2.5 µM [1]: 0.75
- fold induction at 2.5 µM [2]: 0.74
- fold induction at 2.5 µM [3]: 0.76

Structure (SMILES): C[C@@H]1C(=O)O[C@H]2C[C@@]34[C@H]5C[C@@H](C(C)(C)C)[C@]36[C@@H](OC(=O)[C@@H]6O)O[C@@]4(C(=O)O5)[C@]21O [Ginkgolide A]
- Average LMP1 Fold Increase [4]: 0.91
- Replicate 1-LMP1 Fold Increase [5]: 1.33
- Replicate 2-LMP1 Fold Increase [5]: 0.49

Structure (SMILES): Cc1nnc(C(=O)NC(C)(C)c2nc(C(=O)NCc3ccc(F)cc3)c(O)c(=O)n2C)o1 [Raltegravir (MK-0518)]
- Average LMP1 Fold Increase [4]: 1.31
- Replicate 1-LMP1 Fold Increase [5]: 0.59
- Replicate 2-LMP1 Fold Increase [5]: 2.02

Structure (SMILES): O=C1NC(=O)C(c2ccccc2[N+](=O)[O-])=C1Nc1ccc(O)c(Cl)c1 [SB415286]
- Average LMP1 Fold Increase [4]: 0.71
- Replicate 1-LMP1 Fold Increase [5]: 0.59
- Replicate 2-LMP1 Fold Increase [5]: 0.84

Structure (SMILES): C=C[C@@]1(C)CC(=O)[C@]2(O)[C@@]3(C)[C@@H](O)CCC(C)(C)[C@@H]3[C@H](O)[C@H](OC(C)=O)[C@@]2(C)O1 [Forskolin]
- fold induction at 2.5 µM [1]: 1.25
- fold induction at 2.5 µM [2]: 1.39
- fold induction at 2.5 µM [3]: 1.11

Structure (SMILES): CCc1cccc2c3c([nH]c12)C(CC)(CC(=O)O)OCC3 (stereo not drawn) [Etodolac]
- fold induction at 2.5 µM [1]: 0.84
- fold induction at 2.5 µM [2]: 0.57
- fold induction at 2.5 µM [3]: 1.1

Structure (SMILES): N#Cc1ccc(C(c2ccc(C#N)cc2)n2cncn2)cc1 [Letrozole]
- fold induction at 2.5 µM [1]: 1.05
- fold induction at 2.5 µM [2]: 0.66
- fold induction at 2.5 µM [3]: 1.44

Structure (SMILES): CNC(=O)c1ccc2cc([C@@]3(O)CCn4cncc43)ccc2c1 [TAK-700 (Orteronel)]
- Average LMP1 Fold Increase [6]: 0.90 fold
- Replicate 1-LMP1 Fold Increase [7]: 0.75 fold
- Replicate 2-LMP1 Fold Increase [8]: 1.06 fold

Structure (SMILES): Cc1c(-c2ccc(O)cc2)n(Cc2ccc(OCCN3CCCCCC3)cc2)c2ccc(O)cc12 [Bazedoxifene HCl]
- fold induction at 2.5 µM [1]: 0.54
- fold induction at 2.5 µM [2]: 0.52
- fold induction at 2.5 µM [3]: 0.56

Structure (SMILES): N#CC1(c2ccc(NC(=O)c3cccnc3NCc3ccncc3)cc2)CCCC1 [Apatinib]
- fold induction at 2.5 µM [1]: 0.87
- fold induction at 2.5 µM [2]: 1.23
- fold induction at 2.5 µM [3]: 0.5
